Experiments:
Assay type in all cases: in vivo
[1] = tested on: rice (Oryza sativa); assay: Test B flooded paddy test, visual plant response rating 0-100; settings: 250 g ai/ha, Flood, applied to paddy water, evaluated after 13 days
How it was run: (§1)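 2-leaf plants; flood 3 cm over soil; compound dosed into paddy water; depth kept constant; greenhouse 13 d; visual scoring vs controls. Dash = no result.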

[2] = tested on: sedge, umbrella (small-flower umbrella sedge, Cyperus difformis); assay: as above; settings: 250 g ai/ha, Flood, applied to paddy water, evaluated after 13 days
How it was run: as §1

[3] = tested on: ducksalad (Heteranthera limosa); assay: as above; settings: 250 g ai/ha, Flood, applied to paddy water, evaluated after 13 days
How it was run: as §1

[4] = tested on: barnyardgrass (Echinochloa crusgalli); assay: as above; settings: 250 g ai/ha, Flood, applied to paddy water, evaluated after 13 days
How it was run: as §1

[5] = tested on: galium (catchweed bedstraw, Galium aparine); assay: Test A postemergence application, visual injury rating 0-100; settings: 10 days
How it was run: (§2)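 Visual injury ratings (0, no effect; 100, complete control) were assigned relative to untreated plants 10 days after treatment. Test chemicals, formulated with a surfactant-containing non-phytotoxic solvent, were applied in loam-sand soil either as a directed soil spray before emergence or to emerged plants, and plants were kept in a greenhouse.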

[6] = tested on: green foxtail (Setaria viridis); assay: as above; settings: 10 days
How it was run: as §2

[7] = tested on: wheat (Triticum aestivum); assay: as above; settings: 10 days
How it was run: as §2

[8] = tested on: kochia (Bassia scoparia); assay: as above; settings: 10 days
How it was run: as §2

[9] = tested on: corn (Zea mays); assay: as above; settings: 10 days
How it was run: as §2

[10] = tested on: horseweed (Erigeron canadensis); assay: as above; settings: 10 days
How it was run: as §2

[11] = tested on: ryegrass, Italian (italian ryegrass, Lolium multiflorum); assay: as above; settings: 10 days
How it was run: as §2

[12] = tested on: barnyardgrass (Echinochloa crus-galli); assay: as above; settings: 10 days
How it was run: as §2

[13] = tested on: palmer (palmer amaranth, palmer pigweed, Amaranthus palmeri); assay: as above; settings: 10 days
How it was run: as §2

[14] = tested on: ragweed (common ragweed, Ambrosia artemisiifolia); assay: as above; settings: 10 days
How it was run: as §2

[15] = tested on: blackgrass (Alopecurus myosuroides); assay: as above; settings: 10 days
How it was run: as §2

[16] = tested on: oat, wild (wild oat, Avena fatua); assay: as above; settings: 10 days
How it was run: as §2

[17] = tested on: soybean (Glycine max); assay: as above; settings: 10 days
How it was run: as §2

[18] = tested on: green foxtail (Setaria viridis); assay: Test A preemergence soil spray, visual injury rating 0-100; settings: 10 days, 0 = no effect, 100 = complete control
How it was run: as §2

[19] = tested on: wheat (Triticum aestivum); assay: as above; settings: 10 days, 0 = no effect, 100 = complete control
How it was run: as §2

[20] = tested on: kochia (Bassia scoparia); assay: as above; settings: 10 days, 0 = no effect, 100 = complete control
How it was run: as §2

[21] = tested on: corn (Zea mays); assay: as above; settings: 10 days, 0 = no effect, 100 = complete control
How it was run: as §2

[22] = tested on: ryegrass, Italian (italian ryegrass, Lolium multiflorum); assay: as above; settings: 10 days, 0 = no effect, 100 = complete control
How it was run: as §2

[23] = tested on: barnyardgrass (Echinochloa crus-galli); assay: as above; settings: 10 days, 0 = no effect, 100 = complete control
How it was run: as §2

[24] = tested on: palmer (palmer amaranth, palmer pigweed, Amaranthus palmeri); assay: as above; settings: 10 days, 0 = no effect, 100 = complete control
How it was run: as §2

[25] = tested on: ragweed (common ragweed, Ambrosia artemisiifolia); assay: as above; settings: 10 days, 0 = no effect, 100 = complete control
How it was run: as §2

[26] = tested on: blackgrass (Alopecurus myosuroides); assay: as above; settings: 10 days, 0 = no effect, 100 = complete control
How it was run: as §2

[27] = tested on: oat, wild (wild oat, Avena fatua); assay: as above; settings: 10 days, 0 = no effect, 100 = complete control
How it was run: as §2

[28] = tested on: soybean (Glycine max); assay: as above; settings: 10 days, 0 = no effect, 100 = complete control
How it was run: as §2

[29] = 31 g ai/ha, postemergence, 0 = no effect, 100 = complete control
[30] = Postemergence, 125 g ai/ha, 0 is no effect, 100 is complete control

CNC(=O)C1CCC(NC(=O)C2(C)CN(c3cc(F)cc(F)c3)C(=O)O2)C1 (stereo not shown) [Compound 14]
20: Corn plant response rating (0 to 100 scale) [9, 30]
0: Plant response rating, Rice (0 to 100 scale, 0 is no effect and 100 is complete control) [1] | Plant response rating, Sedge, Umbrella (0 to 100 scale, 0 is no effect and 100 is complete control) [2] | Plant response rating, Ducksalad (0 to 100 scale, 0 is no effect and 100 is complete control) [3] | Plant response rating, Barnyardgrass (0 to 100 scale, 0 is no effect and 100 is complete control) [4] | Galium plant response rating (0-100) [5, 29] | Galium plant response rating (0 to 100 scale) [5, 30] | Foxtail, Green plant response rating (0-100) [6, 29] | Foxtail, Green plant response rating (0 to 100 scale) [6, 30] | Wheat plant response rating (0-100) [7, 29] | Wheat plant response rating (0 to 100 scale) [7, 30] | Kochia plant response rating (0-100) [8, 29] | Kochia plant response rating (0 to 100 scale) [8, 30] | Corn plant response rating (0-100) [9, 29] | Horseweed plant response rating (0-100) [10, 29] | Horseweed plant response rating (0 to 100 scale) [10, 30] | Ryegrass, Italian plant response rating (0-100) [11, 29] | Ryegrass, Italian plant response rating (0 to 100 scale) [11, 30] | Barnyardgrass plant response rating (0-100) [12, 29] | Barnyardgrass plant response rating (0 to 100 scale) [12, 30] | Amaranth, Palmer plant response rating (0-100) [13, 29] | Amaranth, Palmer / Pigweed, Palmer plant response rating (0 to 100 scale) [13, 30] | Ragweed plant response rating (0-100) [14, 29] | Ragweed plant response rating (0 to 100 scale) [14, 30] | Blackgrass plant response rating (0-100) [15, 29] | Blackgrass plant response rating (0 to 100 scale) [15, 30] | Oat, Wild plant response rating (0-100) [16, 29] | Oat, Wild plant response rating (0 to 100 scale) [16, 30] | Soybean plant response rating (0-100) [17, 29] | Soybean plant response rating (0 to 100 scale) [17, 30] | Foxtail, Green plant response rating (0-100) ([18]; 31 g ai/ha) | Foxtail, Green plant response rating (0 to 100 scale) ([18]; 125 g ai/ha) | Wheat plant response rating (0-100) ([19]; 31 g ai/ha) | Wheat plant response rating (0 to 100 scale) ([19]; 125 g ai/ha) | Kochia plant response rating (0-100) ([20]; 31 g ai/ha) | Kochia plant response rating (0 to 100 scale) ([20]; 125 g ai/ha) | Corn plant response rating (0-100) ([21]; 31 g ai/ha) | Corn plant response rating (0 to 100 scale) ([21]; 125 g ai/ha) | Ryegrass, Italian plant response rating (0-100) ([22]; 31 g ai/ha) | Ryegrass, Italian plant response rating (0 to 100 scale) ([22]; 125 g ai/ha) | Barnyardgrass plant response rating (0-100) ([23]; 31 g ai/ha) | Barnyardgrass plant response rating (0 to 100 scale) ([23]; 125 g ai/ha) | Amaranth, Palmer plant response rating (0-100) ([24]; 31 g ai/ha) | Amaranth, Palmer plant response rating (0 to 100 scale) ([24]; 125 g ai/ha) | Ragweed plant response rating (0-100) ([25]; 31 g ai/ha) | Blackgrass plant response rating (0-100) ([26]; 31 g ai/ha) | Blackgrass plant response rating (0 to 100 scale) ([26]; 125 g ai/ha) | Oat, Wild plant response rating (0-100) ([27]; 31 g ai/ha) | Oat, Wild plant response rating (0 to 100 scale) ([27]; 125 g ai/ha) | Soybean plant response rating (0-100) ([28]; 31 g ai/ha) | Soybean plant response rating (0 to 100 scale) ([28]; 125 g ai/ha)
30: Ragweed plant response rating (0 to 100 scale) ([25]; 125 g ai/ha)

Source: patent US20260285850A1, “SUBSTITUTED OXAZOLIDINONES AND IMIDAZOLINONES AS HERBICIDES” (FMC CORPORATION, priority 2023, published 2026)
